Results published in PubChem BioAssay (NCI).
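1) Cells in 96-well plates. 2) Compound, 48 h, 5 concentrations. 3) Linear interpolation between surrounding doses. 4) Unreached endpoint = highest concentration. GI50 is the concentration that inhibits growth by half. The concentration for full growth arrest is given as TGI.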

What was measured:
Assay in all cases: NCI tumour cell line growth inhibition, 48 h
SK-MEL-5 melanoma = test system: SK-MEL-5 melanoma
MALME-3M melanoma = test system: MALME-3M melanoma
MOLT-4 leukemia = test system: MOLT-4 leukemia
UACC-257 melanoma = test system: UACC-257 melanoma
MCF7 breast = test system: MCF7 breast
HCT-116 colon = test system: HCT-116 colon
SF-295 CNS = test system: SF-295 CNS
SNB-78 CNS = test system: SNB-78 CNS
NCI-H522 lung = test system: NCI-H522 lung
OVCAR-4 ovarian = test system: OVCAR-4 ovarian
U251 CNS = test system: U251 CNS
SF-268 CNS = test system: SF-268 CNS
SN12K1 renal = test system: SN12K1 renal
OVCAR-8 ovarian = test system: OVCAR-8 ovarian
XF 498 CNS = test system: XF 498 CNS
NCI-H460 lung = test system: NCI-H460 lung
NCI/ADR-RES ovarian = test system: NCI/ADR-RES ovarian
SK-MEL-28 melanoma = test system: SK-MEL-28 melanoma
A549 NSCLC = test system: A549 NSCLC
HCC-2998 colon = test system: HCC-2998 colon
IGROV1 ovarian = test system: IGROV1 ovarian
A498 renal = test system: A498 renal
SNB-75 CNS = test system: SNB-75 CNS
HL-60(TB) leukemia = test system: HL-60(TB) leukemia
HCT-15 colon = test system: HCT-15 colon
RPMI-8226 leukemia = test system: RPMI-8226 leukemia
LOX IMVI melanoma = test system: LOX IMVI melanoma
SW-620 colon = test system: SW-620 colon
P388 leukemia = test system: P388 leukemia
CCRF-CEM leukemia = test system: CCRF-CEM leukemia
SNB-19 CNS = test system: SNB-19 CNS
DLD-1 colon = test system: DLD-1 colon
NCI-H226 lung = test system: NCI-H226 lung
HOP-92 NSCLC = test system: HOP-92 NSCLC
SN12C renal = test system: SN12C renal
K-562 leukemia = test system: K-562 leukemia
CAKI-1 renal = test system: CAKI-1 renal
HOP-18 NSCLC = test system: HOP-18 NSCLC
OVCAR-5 ovarian = test system: OVCAR-5 ovarian
SK-OV-3 ovarian = test system: SK-OV-3 ovarian
UO-31 renal = test system: UO-31 renal
SK-MEL-2 melanoma = test system: SK-MEL-2 melanoma
KM20L2 colon = test system: KM20L2 colon
RXF 393 renal = test system: RXF 393 renal
OVCAR-3 ovarian = test system: OVCAR-3 ovarian
DMS 273 small cell lung = test system: DMS 273 small cell lung
HOP-62 NSCLC = test system: HOP-62 NSCLC
SF-539 CNS = test system: SF-539 CNS
KM12 colon = test system: KM12 colon
COLO 205 colon = test system: COLO 205 colon
NCI-H23 lung = test system: NCI-H23 lung
UACC-62 melanoma = test system: UACC-62 melanoma
P388/ADR leukemia = test system: P388/ADR leukemia
EKVX NSCLC = test system: EKVX NSCLC
HT29 colon = test system: HT29 colon

`NC1CCCCC1N.Nc1c(N=Nc2ccc(-c3ccc(N=Nc4cc(S(=O)(=O)[O-])c5ccccc5c4N)cc3)cc2)cc(S(=O)(=O)[O-])c2ccccc12.[OH3+].[OH3+].[Pt+4]` was tested, and the GI50 (SK-MEL-5 melanoma) was 33 µM, the TGI (SK-MEL-5 melanoma) was greater than 83.9 µM and the GI50 (MALME-3M melanoma) was 15.4 µM. For the same compound, the TGI (MALME-3M melanoma) was 22.2 µM, the GI50 (MOLT-4 leukemia) was 21.1 µM and the TGI (MOLT-4 leukemia) was 54.6 µM. The GI50 (UACC-257 melanoma) was 18.1 µM, the TGI (UACC-257 melanoma) was 34.7 µM and the GI50 (MCF7 breast) was 30.9 µM. The TGI (MCF7 breast) was greater than 100 µM, the GI50 (HCT-116 colon) was greater than 96.1 µM and the TGI (HCT-116 colon) was greater than 100 µM. For the same compound, the GI50 (SF-295 CNS) was greater than 100 µM, the TGI (SF-295 CNS) was greater than 100 µM and the GI50 (SNB-78 CNS) was greater than 76.5 µM. For the same compound, the TGI (SNB-78 CNS) was greater than 100 µM, the GI50 (NCI-H522 lung) was 19.6 µM and the TGI (NCI-H522 lung) was 37.9 µM. For the same compound, the GI50 (OVCAR-4 ovarian) was 35.3 µM, the TGI (OVCAR-4 ovarian) was greater than 93 µM and the GI50 (U251 CNS) was greater than 100 µM. The TGI (U251 CNS) was greater than 100 µM, the GI50 (SF-268 CNS) was greater than 78.6 µM and the TGI (SF-268 CNS) was greater than 100 µM. For the same compound, the GI50 (SN12K1 renal) was 27.3 µM, the TGI (SN12K1 renal) was greater than 58.2 µM and the GI50 (OVCAR-8 ovarian) was 26.8 µM. It also gave a TGI (OVCAR-8 ovarian) greater than 68.1 µM, a GI50 (XF 498 CNS) of 20.4 µM and a TGI (XF 498 CNS) of 42 µM. For the same compound, the GI50 (NCI-H460 lung) was 40 µM, the TGI (NCI-H460 lung) was greater than 100 µM and the GI50 (NCI/ADR-RES ovarian) was 20.9 µM. For the same compound, the TGI (NCI/ADR-RES ovarian) was 43 µM, the GI50 (SK-MEL-28 melanoma) was 22 µM and the TGI (SK-MEL-28 melanoma) was 42.2 µM. The GI50 (A549 NSCLC) was greater than 76.5 µM, the TGI (A549 NSCLC) was greater than 100 µM and the GI50 (HCC-2998 colon) was greater than 90.9 µM. For the same compound, the TGI (HCC-2998 colon) was greater than 100 µM, the GI50 (IGROV1 ovarian) was 48.5 µM and the TGI (IGROV1 ovarian) was greater than 100 µM. The GI50 (A498 renal) was greater than 100 µM, the TGI (A498 renal) was greater than 100 µM and the GI50 (SNB-75 CNS) was greater than 77.2 µM. For the same compound, the TGI (SNB-75 CNS) was greater than 100 µM, the GI50 (HL-60(TB) leukemia) was 21.2 µM and the TGI (HL-60(TB) leukemia) was 50.9 µM. The GI50 (HCT-15 colon) was greater than 43.3 µM, the TGI (HCT-15 colon) was greater than 59.6 µM and the GI50 (RPMI-8226 leukemia) was 25.2 µM. It also gave a TGI (RPMI-8226 leukemia) of 66.3 µM, a GI50 (LOX IMVI melanoma) greater than 52.2 µM and a TGI (LOX IMVI melanoma) greater than 80.7 µM. The GI50 (SW-620 colon) was 25.2 µM, the TGI (SW-620 colon) was 49.4 µM and the GI50 (P388 leukemia) was 26.3 µM. The TGI (P388 leukemia) was 90.5 µM, the GI50 (CCRF-CEM leukemia) was 29.2 µM and the TGI (CCRF-CEM leukemia) was greater than 79.3 µM. For the same compound, the GI50 (SNB-19 CNS) was greater than 100 µM, the TGI (SNB-19 CNS) was greater than 100 µM and the GI50 (DLD-1 colon) was 21.1 µM. For the same compound, the TGI (DLD-1 colon) was 43.5 µM, the GI50 (NCI-H226 lung) was greater than 52.6 µM and the TGI (NCI-H226 lung) was greater than 100 µM. The GI50 (HOP-92 NSCLC) was 14.2 µM, the TGI (HOP-92 NSCLC) was 19.9 µM and the GI50 (SN12C renal) was greater than 56.9 µM. For the same compound, the TGI (SN12C renal) was greater than 100 µM, the GI50 (K-562 leukemia) was 25 µM and the TGI (K-562 leukemia) was 64.2 µM. For the same compound, the GI50 (CAKI-1 renal) was greater than 39.9 µM, the TGI (CAKI-1 renal) was greater than 56.9 µM and the GI50 (HOP-18 NSCLC) was 24.5 µM. For the same compound, the TGI (HOP-18 NSCLC) was 53.3 µM, the GI50 (OVCAR-5 ovarian) was greater than 100 µM and the TGI (OVCAR-5 ovarian) was greater than 100 µM. The GI50 (SK-OV-3 ovarian) was greater than 100 µM, the TGI (SK-OV-3 ovarian) was greater than 100 µM and the GI50 (UO-31 renal) was greater than 100 µM. For the same compound, the TGI (UO-31 renal) was greater than 100 µM, the GI50 (SK-MEL-2 melanoma) was 45.6 µM and the TGI (SK-MEL-2 melanoma) was greater than 100 µM. For the same compound, the GI50 (KM20L2 colon) was greater than 100 µM, the TGI (KM20L2 colon) was greater than 100 µM and the GI50 (RXF 393 renal) was 20.3 µM. The TGI (RXF 393 renal) was 68.5 µM, the GI50 (OVCAR-3 ovarian) was 42.8 µM and the TGI (OVCAR-3 ovarian) was greater than 60.1 µM. The GI50 (DMS 273 small cell lung) was 59.2 µM, the TGI (DMS 273 small cell lung) was greater than 100 µM and the GI50 (HOP-62 NSCLC) was greater than 100 µM. The TGI (HOP-62 NSCLC) was greater than 100 µM, the GI50 (SF-539 CNS) was greater than 100 µM and the TGI (SF-539 CNS) was greater than 100 µM. The GI50 (KM12 colon) was greater than 60.5 µM, the TGI (KM12 colon) was greater than 100 µM and the GI50 (COLO 205 colon) was 17.1 µM. The TGI (COLO 205 colon) was 32.9 µM, the GI50 (NCI-H23 lung) was 67.9 µM and the TGI (NCI-H23 lung) was greater than 100 µM. The GI50 (UACC-62 melanoma) was 61.4 µM, the TGI (UACC-62 melanoma) was greater than 100 µM and the GI50 (P388/ADR leukemia) was 22.6 µM. It also gave a TGI (P388/ADR leukemia) greater than 62 µM, a GI50 (EKVX NSCLC) of 33.8 µM and a TGI (EKVX NSCLC) of 81.7 µM. The GI50 (HT29 colon) was 20.1 µM and the TGI (HT29 colon) was 38.8 µM.
